From US20260158016A1, “HALOPERIDOL DERIVATIVES, PHARMACEUTICAL COMPOSITION COMPRISING SAID DERIVATIVES, AND THERAPEUTIC USES THEREOF” (University of Virginia Patent Foundation, priority 2023, published 2026)
“Also recorded” adds a separate entry of the source.

Legend:
[1] = system: Alu RNA-induced RPE degeneration; experiment: Alu RNA-induced RPE degeneration in mice (ZO-1 stained RPE flat mounts); assay type: in vivo, C57BL/6J mice
Procedure: C57BL/6J mice (The Jackson Laboratory) were anesthetized with ketamine hydrochloride and xylazine. In vitro-transcribed Alu RNA (300 ng in 1 μL) was injected subretinally to induce RPE degeneration (Kaneko, 2011). Various doses of haloperidol (Sigma Aldrich; 1-500 ng in 0.5 μL) or PBS (vehicle) was injected into the vitreous humor 24 h before and immediately after Alu RNA injection. Alternatively, various doses of haloperidol (2-10 μg) were administered via intraperitoneal administration on days 1 through 6 after Alu RNA injection. Animals were euthanized 7 days after Alu RNA injection, and the eyes were enucleated.
RPE health was assessed by immunofluorescence staining of zonula occludens-1 (ZO-1) on RPE flat mounts. Flat mounts were fixed with 2% PFA, stained with rabbit polyclonal antibodies against mouse ZO-1 (Invitrogen), visualized with Alexa Fluor 594 (Invitrogen), and imaged (A1R Nikon). Images were graded as healthy or degenerated in masked fashion as previously described (Kerur, 2018). Proportions of eyes with degeneration were compared using Fisher's exact test.

[2] = system: dry AMD; experiment: Health insurance claims database analysis (PearlDiver Mariner): risk of developing dry AMD by haloperidol exposure; assay type: in vivo, human; settings: for Hazard Ratio of developing dry AMD (adjusted hazard ratio): adjusted Cox proportional hazards regression, propensity-score-matched, patients with schizophrenia or Tourette's disorder aged 50 or older
From the text: The retrospective study used claims data from the PearlDiver Mariner database, which contains data on health care claims and medication usage for persons in provider networks over the time period 2010 to the second quarter of 2018.
Patients were included in the analysis if they had continuous enrollment in the plan for at least 1 year and were at least 50 years of age at baseline. Individuals with pre-existing dry AMD (≥1 medical claims prior to diagnosis of schizophrenia or Tourette's disorder) were excluded. Disease claims were identified by International Classification of Diseases (ICD)-9-CM and ICD-10-CM codes.
Exposure to haloperidol—the independent variable—was determined by whether patients filled ≥1 outpatient pharmacy prescriptions for generic or brand versions, either in sole form or as a combination medication, as identified by National Drug Codes.
Time to initial diagnosis of dry AMD was the dependent variable.
Analyses were performed with the use of R software, version 4.2.2 (the R project (www.r-project.org)). To analyze the risk of dry AMD between haloperidol users and haloperidol non-users, an adjusted Cox proportional hazards regression analysis was performed, and the hazard ratio was analyzed by the likelihood ratio test. […] This adjusted model included confounding covariates that influence dry AMD risk: age, sex, smoking, body mass index, and Charlson comorbidity index. Kaplan-Meier survival plots were analyzed by log rank test. Statistical tests were 2-sided. P values <0.05 were considered statistically significant.
To evaluate the robustness of the findings and mitigate any possible residual confounding, we estimated propensity-score models including use of haloperidol and no use of haloperidol. The individual propensities for starting haloperidol treatment were estimated with the use of logistic regression. […] We used the R package MatchIt to perform matching in a 1:1 ratio using greedy nearest neighbor matching. In addition, to control for any residual covariate imbalance, we estimated the relative hazard in the propensity score-matched groups using the multivariable Cox models that included the covariates from the multivariable regression analysis employed for the original unmatched group analyses. Statistical tests were two-sided. P values <0.05 were considered statistically significant.
We performed a retrospective, longitudinal cohort analysis in the PearlDiver Mariner database (comprising 150 million Americans from 2010 to 2018) among patients with schizophrenia or Tourette's disorder (the population that would be exposed to haloperidol or other anti-psychotics) aged 50 or older (the population at risk) to assess the risk of dry AMD.

[3] = patients taking haloperidol (Coryell, 1998); cited from earlier work
[4] = system: IL-1β secretion by THP-1 cells; experiment: Inflammasome activation: IL-1β secretion ELISA in LPS and ATP stimulated THP-1 cells; assay type: cell-based, human; settings: LPS 125 ng/ml 4 h + ATP 5 mM 30 min, haloperidol pretreatment 1 h, P<0.05 vs vehicle
Procedure: Human THP-1 cells were stimulated with LPS (125 ng/ml) for 4 h and ATP (5 mM) for 30 min. For all experiments, cells were pretreated with haloperidol (1, 10, or 100 μM) for 1 h and again after the activating stimuli. Secreted human […] in the conditioned cell culture media was detected using an ELISA kit (R&D Systems) according to the manufacturer's instructions. Mean and SEM values are presented.
Haloperidol was tested for inhibition of inflammasome activation. Inflammasome activation was assessed in human THP-1 monocytes by measuring IL-1ß secretion via ELISA.

## O=C(CCCN1CCC(O)(c2ccc(Cl)cc2)CC1)c1ccc(F)cc1 [haloperidol]
[1]; 5 ng haloperidol intravitreous, 24 h before and immediately after subretinal Alu RNA, assessed day 7
  eyes protected against RPE degeneration: 70%
[1]; daily intraperitoneal injection at 2 μg, 5 μg, or 10 μg, days 1 through 6 after Alu RNA
  protection against RPE degeneration: 70-80%
[1]; intravitreous dose-ranging 1 ng to 500 ng
  dose with maximal protective effect against RPE degeneration: 5 ng
[1]; subretinal Alu RNA, intravitreous or intraperitoneal haloperidol (FIG. 3)
  Alu RNA-induced RPE degeneration (qualitative): blocked
[2]; Mariner database, log-rank test P<0.001
  rate of developing dry AMD (Kaplan-Meier survival analysis): significantly slower rate
[2]; Mariner database
  Hazard Ratio of developing dry AMD (adjusted hazard ratio): 0.747
[2]; Mariner database, listed as Haloperidol
  Hazard Ratio of developing dry AMD (adjusted hazard ratio): 0.7468
[2]; haloperidol exposure vs nonexposure, Mariner, adjusted Cox model
  reduced hazard of developing dry AMD: 25%
[3]
  serum concentration: exceeding 20 ng/ml
[4]
  IL-1β secretion (inflammasome activation): reduced; also recorded: inhibits
